A melting point compilation (Tetko et al.; mined from patent text by program, amines drawn as free bases though some values may be those of a salt)

melting point [°C]	SMILES
199 to 200	C[C@H]1N(C(=O)c2ccc(C(F)(F)F)cc2)CC(O)O[C@@]1(Cn1cncn1)c1ccc(Cl)cc1Cl (relative stereo)
140	COc1ccc2ccc(N3C(=O)c4ccccc4C3CC(=O)C3CCCCC3)nc2n1 (stereo not drawn)
92.6	FC(F)(F)c1cccc(NC2CCCN(c3ccc(Cl)nn3)C2)c1 (stereo not drawn)
180	CCOC(=O)c1[nH]cc2c1NC1=C(C(=O)CCC1)C2c1ccc(Sc2nc3cc(Cl)c(Cl)cc3[nH]2)o1 (stereo not drawn)
200 to 210	O=C(O)CNCC(=O)NC[C@@H]1CC(c2ccc(-c3ccc(N4C[C@H](Cn5ccnn5)OC4=O)cc3F)cn2)=NO1
21 to 23	CCc1ccc(OCCCCCCN2CCN(c3nccs3)CC2)cc1
218	CCc1c(C(=O)O)nn(-c2ccc(Cl)cc2Cl)c1-c1ccc(Br)cc1
203 to 204	CN1C(=O)C(C(=O)Nc2ccccc2)c2cc3c(cc2S1(=O)=O)CCCC3 (stereo not drawn)
270 to 271	Cc1ccnc2c1n(C(C)C)c(=O)n2-c1ccc(Oc2nc3cccnc3n2C)cc1
248 to 249	O=S(=O)(Nc1cccc(Cl)c1)c1ccc(Nc2nc(OCC3CCCCC3)c3nc[nH]c3n2)cc1
141 to 142	COc1ccc(CNc2nc(SC)ncc2C(=O)c2cccnc2)cc1Cl
230 to 232	CC1=C(C)C(=O)C(CCCOc2ccc(C=C3SC(=O)NC3=O)cc2)=C(C)C1=O
238 to 242	CCOC(=O)c1cnc2nc(C=CC(N)=O)c(OCC)cc2c1Nc1ccc(OC)cc1
92 to 93	CCOC(=O)c1cc(OC)ccc1CCc1cc2cc(C#N)ccc2o1
228 to 230	CS(=O)(=O)c1ccc(-c2nc(C(F)(F)F)[nH]c2-c2ccccc2)cc1
63 to 65	Fc1cc(OCCBr)ccc1OCc1ccccc1
126 to 127	Cc1ccc(/C=C/[C@@]2(O)C[C@H](O)CC(=O)O2)cc1
212 to 213	CC(=O)N1c2ccc(C#N)cc2C(Nc2ccc(Cl)cc2)CC1C (stereo not drawn)
119 to 121	Cc1ccc2c(c1)c1c(n2C(=O)c2ccccc2)CCCC1C(=O)OCc1ccccc1 (stereo not drawn)
135 to 145	COC(=O)C1=C(C)NC(C)=C(C(=O)OC)C1c1cccc(NC(=NC#N)N(C)CCCN2CCC(c3ccccc3)CC2)c1
195 to 196	CC(=O)Oc1ccccc1Cn1nnnc1-c1cccc(Cl)c1Cl
115 to 116	CCn1cc(CN(C(=O)C2CCc3cc(OC)ccc32)c2ccc(C(C)C)cc2)cn1 (stereo not drawn)
120	CC(=O)OCCCN1CCC(CNC(=O)[C@@H]2CCCN2S(=O)(=O)c2ccc(Cl)c(COc3cccc4c(-n5cncn5)cc(C)nc34)c2Cl)CC1

melting point [°C]	SMILES
60 to 62	COC(=O)c1ccc2c(c1)-n1cccc1CO2
142 to 143	COc1cc(CN(C)Cc2ccccc2)ccc1NC(=O)Nc1cnc(C)cn1
212 to 213	CCCCOC(=O)c1cc(=O)c2c(cc(OC)c3ncccc32)[nH]1
190	O=C(NCc1cn(-c2ccc(N3CCOCC3)c(F)c2)nn1)C(Cl)Cl
44 to 59	O=CC(=O)c1ccc(OCCc2ccccc2)cc1
235 to 238	COc1cc2c(cc1OC)C(c1ccnc(-n3nc(-c4cccnc4)c4ccccc4c3=O)c1)=N[C@H](CO)C2
218	COc1cccc2c1N(S(=O)(=O)c1ccc(-c3ccc(F)cc3F)cc1)C(C(=O)NCc1ccc(C(=O)O)cc1)C2 (stereo not drawn)
145 to 148	O=C(O)C(=O)CC(=O)c1cccn1Cc1ccc(F)c(F)c1
102 to 103	CCOC(=O)COc1ccc(Cc2ccc(O)cc2)c(Cl)c1Cl
175 to 176	O=c1cnn(-c2cc(Cl)c(Cc3ccc(Cl)cc3)c(Cl)c2)c(=O)[nH]1
153 to 154	COc1ccc2c(c1)NC(=O)C(CCCN1CCN(c3ccc(F)cc3)CC1)O2 (stereo not drawn)
168 to 171	CCOc1cnc(C(C)(C)OC(=O)Nc2ccc(-c3ncn(-c4ccc(OC(F)(F)F)cc4)n3)cc2)nc1
198 to 200	CCn1cc(C(=O)O)c(=O)c2cc(F)c(N3CCC3CN)nc21 (stereo not drawn)
128 to 130	C[C@H](O)CCOc1c(-c2ccc(S(C)(=O)=O)cc2)cnn(-c2ccc(F)c(F)c2)c1=O
121 to 125	O=C(NCC12CC3CC(CC(C3)C1)C2)c1cc(-c2cc(F)c(F)cc2C(=O)O)ccc1Cl
194	O=C(c1cc(=O)c2cc(O)ccc2[nH]1)N1CCC(Cc2ccc(Cl)cc2)CC1
134 to 136	COc1cccc(CSc2c(O)cc(-c3ccccc3)oc2=O)c1
159 to 160	COc1ccc(CNc2n[nH]cc2C#N)cc1OC1CCCC1
190 to 192	CCOC(=O)c1cnc(-c2ccc(OC)cc2OC)[nH]c1=O
187 to 194	O=C(O)CN1C(=O)C(=Cc2ccc(OCc3cccc(C(F)(F)F)c3)c(OCc3ccccc3)c2)SC1=S
129 to 132	COc1ccc(N2CCN(c3c(C)c(C)c4c(c3C)CC(C)(CN3CCCC3)O4)CC2)cc1 (stereo not drawn)
154 to 155	COc1cccc([C@H]2O[C@H](CC(=O)Nc3cc(CCC(=O)O)ccc3C)C(=O)N(CC(C)(C)CO)c3ccc(Cl)cc32)c1OC
213	COc1ccc(C=CC(=O)N2CCc3c([nH]c4ccccc34)C2c2ccc3c(c2)OCO3)cc1O (stereo not drawn)

The next lines start with the molecule.

SMILES	melting point [°C]
CC(=O)Nc1cc(N(CCO)CCO)ccc1N=Nc1snc(C)c1C#N	188 to 189
FC(F)(F)c1cc2c(cc1Cl)C(Cl)Cc1ccccc1S2 (stereo not drawn)	100 to 102
CCCCCCCCCCCCCCCCCCOc1cc2ccccc2cc1O	60 to 62
O=C1NC(c2ccccc2)=N/C1=C\c1c[nH]c2ncc(Cl)cc12	250
CCCc1cn(C(CC)C(=O)N(C)C)nc1-c1ccccc1 (stereo not drawn)	63 to 65.5
CCOCC(=O)SSc1ccc([N+](=O)[O-])cc1C(Cl)(Cl)Cl	89
Nc1nc(Cc2ccccc2)no1	142 to 145
CCCCCCCCCCC[C@H](CC(=O)N[C@H](CO)C(=O)OCc1ccccc1)OC(=O)CCCCCCCCC	51 to 52
Cc1ccc(C=C2SC(=S)N(CC(=O)O)C2=O)cc1	245 to 250
CCCCCNc1nc(N(C)Cc2ccccc2)c2ncn(CC(=O)O)c2n1	134 to 142
O=C(NO)c1ccc(C(=O)NC/C=C/c2ccccc2)cc1	169 to 170
COc1ccc(CC(=O)c2cc(OC)c(OC)cc2C)cc1OC	115
Clc1nccc(Nc2cnc3ccccc3c2)n1	140 to 143
COc1cc2c(c(Cl)c1Cl)C(=O)C(CCCl)C2 (stereo not drawn)	103 to 105
O=[N+]([O-])c1ccc(NN=C(Cl)c2ccccc2)cc1	195 to 196
CC(C)Oc1ncc(OC(=O)C2(C)CC2)cc1Cl	116 to 117
CC1(C)[C@@H](C=C(F)F)[C@@H]1C(=O)OCc1c(F)c(F)c(F)c(-c2ccccc2)c1F (relative stereo)	69 to 72
O=C1N(Cc2nc3ncccc3o2)c2ccccc2C12COc1cc3c(cc12)OCO3 (stereo not drawn)	202 to 204
Cc1nc(Cl)c2c(c1O)COC2(c1ccccc1)c1ccccc1	240
CCCCCCC(CCC(=O)OO)CC(=O)OO (stereo not drawn)	51.5 to 52.5
CCNC=C(C(=O)OCC)C(=O)c1cc(F)c(F)c(C)c1F	110
CCN(CC)C(=O)CCc1nc(-c2ccccc2Cl)nc2ccccc12	90
CC(C)(C)OC(=O)CCc1csc(CCNc2nc(N)c3ncn(C4OC(CO)C(O)C4O)c3n2)c1 (stereo not drawn)	120 to 124
CCOC(=O)C(Cl)=Cc1cc(-n2ncc(C(F)(F)F)c(C)c2=O)ccc1Cl	164 to 167
Oc1nc2nc(SCc3ccccc3)nn2c(O)c1-c1c(F)cc(F)cc1F	273
CC(C)(C)C(=O)Nc1ccc2oc3c(c2c1)CCC3	188 to 190

SMILES	melting point [°C]
Nc1cc(S(=O)c2ccccc2)ccc1Cl (stereo not drawn)	89 to 90
CC(C)=CCN1Cc2c(Br)ccc3[nH]c(=O)n(c23)CC1C (single isomer, unassigned; (+))	125
COc1ccc(-c2ocnc2-c2cc(OC)c(N)c(OC)c2)cc1O	126 to 130
CNC(Cc1ccccc1NC(=O)C(C)(C)C)c1cccnc1 (stereo not drawn)	91.5 to 96
O=C(O)Cc1c(C(=O)c2ccc(Cl)cn2)[nH]c2ccc(Cl)cc12	259 to 260
Cc1cccc(N(C)c2nc(Cl)nc(Cl)n2)c1C	140 to 141
Clc1ccc(-c2ccc(CBr)cc2)cc1	64 to 66
COc1ccc2[nH]c(COC(C)=O)c(C=O)c2c1[N+](=O)[O-]	201 to 203
CCOC(=O)[C@H](Cc1ccc(O)cc1)NC(=O)C(C)(C)NC(=O)[C@@H](SC(C)=O)C(C)C	137 to 138
CC(=O)Nc1ccc(S(=O)(=O)N(C)c2ccc(O)cc2)cc1	202 to 203
CCOC(=O)C1CCC(=O)NC1=O (stereo not drawn)	69 to 74
CCCCC(=O)SCC(Cc1ccccc1)C(=O)Nc1cccc(C(=O)O)c1C (stereo not drawn)	113 to 114
O=C(Nc1ccnc(Br)c1)C1(O)CCCC1	153
O=Cc1nccnc1OCc1ccccc1	69.4
CC(C)c1ccc(C#CC(C)N(O)C(N)=O)cc1 (stereo not drawn)	154 to 156
Cc1cc(C)cc(OCC(O)CNc2nc(-c3ccccc3)nc3ccccc23)c1 (stereo not drawn)	170 to 172
O=c1[nH]c2cc(Cl)ccc2n(O)c1=O	> 300
Nc1c(F)c(F)nc(-n2cc(C(=O)O)c(=O)c3cc(F)c(F)c(Cl)c32)c1F	280 to 283
COC(=O)c1ccc(CBr)c(CBr)c1	74 to 75
Cc1cc(SC#N)c(C(C)(C)C)cc1NC(=O)OC(C)(C)C	100 to 111
Cc1c(C)c([N+](=O)[O-])c(C)c2c1OC(C)(C)C2c1ccccc1 (stereo not drawn)	155 to 156
CC1CC(=O)C(C(=O)CCC2CCCO2)C(=O)O1 (stereo not drawn)	43 to 45
O=C1CCc2c1ccc(F)c2F	28 to 32
C[C@H]1C=CC2=C[C@@H](O)C[C@H](O)[C@@H]2[C@H]1CC[C@@H]1C[C@@H](O)CC(=O)O1	161 to 163
Ic1cccc2c(SSc3cccc4c(I)cccc34)cccc12	202 to 203
Cc1sc(CO)c(C)c1Br	85 to 90
